Reference: publication PMC8550792, “Evolution of kinase polypharmacology across HSP90 drug discovery” (Cell Chemical Biology, 2021)

Assays:
Test in all cases: biochemical
Format in all cases: biochemical
382 unique human kinases [1] = biological target: T1, 382 unique human kinases (Homo sapiens, UniProt Q6PHR2); settings: ULK3, 10 uM; for remaining activity at 10 µM: read-out: % Enzyme Activity (relative to DMSO controls)
T1 construct: purchased Reaction Biology (HotSpot contract assay)
T1 sequence (Q6PHR2 1-472): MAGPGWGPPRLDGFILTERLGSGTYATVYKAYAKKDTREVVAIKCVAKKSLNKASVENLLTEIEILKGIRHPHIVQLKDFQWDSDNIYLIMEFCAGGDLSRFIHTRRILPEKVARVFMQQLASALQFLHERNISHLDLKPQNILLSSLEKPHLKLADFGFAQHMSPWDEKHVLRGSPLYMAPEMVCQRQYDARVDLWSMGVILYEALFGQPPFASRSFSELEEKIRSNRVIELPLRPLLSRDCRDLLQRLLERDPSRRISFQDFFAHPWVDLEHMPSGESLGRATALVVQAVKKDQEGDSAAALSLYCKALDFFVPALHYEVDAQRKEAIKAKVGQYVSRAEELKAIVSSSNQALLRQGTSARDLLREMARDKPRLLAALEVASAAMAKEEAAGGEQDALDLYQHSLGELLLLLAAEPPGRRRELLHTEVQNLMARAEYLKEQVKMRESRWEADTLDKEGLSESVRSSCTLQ

382 unique human kinases [2] = biological target: T2, 382 unique human kinases (Homo sapiens, UniProt O75116); settings: ROCK2, 10 uM; for remaining activity at 10 µM: read-out: % Enzyme Activity (relative to DMSO controls)
T2 construct: purchased Reaction Biology (HotSpot contract assay)

382 unique human kinases [3] = biological target: T3, 382 unique human kinases (Homo sapiens, UniProt P29317); settings: EPHA2, [ATP] 50 µM, compound 10 uM; for remaining activity at 10 µM: read-out: % Enzyme Activity (relative to DMSO controls)
T3 construct: purchased Reaction Biology (HotSpot contract assay)

382 unique human kinases [4] = biological target: T4, 382 unique human kinases (Homo sapiens, UniProt Q9UK32); settings: RSK4, [ATP] 30 µM, compound 10 uM; for remaining activity at 10 µM: read-out: % Enzyme Activity (relative to DMSO controls)
T4 construct: purchased Reaction Biology (HotSpot contract assay)

382 unique human kinases [5] = biological target: T5, 382 unique human kinases (Homo sapiens, UniProt P08581, Y1230C); settings: c-MET (Y1230C), 10 uM; for remaining activity at 10 µM: read-out: % Enzyme Activity (relative to DMSO controls)
T5 construct: purchased Reaction Biology (HotSpot contract assay)

382 unique human kinases [6] = biological target: T6, 382 unique human kinases (Homo sapiens, UniProt P07949, S891A); settings: RET (S891A), [ATP] 5 µM, compound 10 uM; for remaining activity at 10 µM: read-out: % Enzyme Activity (relative to DMSO controls)
T6 construct: purchased Reaction Biology (HotSpot contract assay)

382 unique human kinases [7] = biological target: T7, 382 unique human kinases (Homo sapiens, UniProt P00519, Q252H); settings: ABL1 (Q252H), [ATP] 20 µM, compound 10 uM; for remaining activity at 10 µM: read-out: % Enzyme Activity (relative to DMSO controls)
T7 construct: purchased Reaction Biology (HotSpot contract assay)

382 unique human kinases [8] = biological target: T8, 382 unique human kinases (Homo sapiens, UniProt Q02763, Y897C); settings: kinase TIE2 (Y897C), compound 10 uM; for remaining activity at 10 µM: read-out: % Enzyme Activity (relative to DMSO controls)
T8 construct: purchased Reaction Biology (HotSpot contract assay)

382 unique human kinases [9] = biological target: T9, 382 unique human kinases (Homo sapiens, UniProt Q15569); settings: TESK1, compound at 10 uM, duplicate values; for remaining activity at 10 µM: read-out: % Enzyme Activity (relative to DMSO controls)
T9 construct: purchased Reaction Biology (HotSpot contract assay)

382 unique human kinases [10] = biological target: T10, 382 unique human kinases (Homo sapiens, UniProt Q04771, R206H); settings: ALK2 (R206H), compound at 10 uM, duplicate values; for remaining activity at 10 µM: read-out: % Enzyme Activity (relative to DMSO controls)
T10 construct: purchased Reaction Biology (HotSpot contract assay)
T10 sequence (Q04771 21-509 R206H): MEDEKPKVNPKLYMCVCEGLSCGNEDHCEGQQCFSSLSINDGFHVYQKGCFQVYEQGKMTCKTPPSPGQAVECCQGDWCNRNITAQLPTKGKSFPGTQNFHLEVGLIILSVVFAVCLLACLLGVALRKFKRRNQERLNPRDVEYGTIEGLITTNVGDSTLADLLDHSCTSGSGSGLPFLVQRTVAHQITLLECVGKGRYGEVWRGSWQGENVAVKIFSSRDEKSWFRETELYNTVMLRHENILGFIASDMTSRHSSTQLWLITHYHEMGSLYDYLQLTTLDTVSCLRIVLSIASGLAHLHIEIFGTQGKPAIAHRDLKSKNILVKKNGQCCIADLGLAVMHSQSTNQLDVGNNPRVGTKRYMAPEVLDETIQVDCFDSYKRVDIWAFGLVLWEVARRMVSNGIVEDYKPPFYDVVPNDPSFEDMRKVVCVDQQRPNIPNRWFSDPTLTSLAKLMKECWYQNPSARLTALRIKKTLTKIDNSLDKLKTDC

382 unique human kinases [11] = biological target: T11, 382 unique human kinases (Homo sapiens, UniProt Q15139); settings: PKCmu/PRKD1, 10 uM; for remaining activity at 10 µM: read-out: % Enzyme Activity (relative to DMSO controls)
T11 construct: purchased Reaction Biology (HotSpot contract assay)
T11 sequence (Q15139 1-912): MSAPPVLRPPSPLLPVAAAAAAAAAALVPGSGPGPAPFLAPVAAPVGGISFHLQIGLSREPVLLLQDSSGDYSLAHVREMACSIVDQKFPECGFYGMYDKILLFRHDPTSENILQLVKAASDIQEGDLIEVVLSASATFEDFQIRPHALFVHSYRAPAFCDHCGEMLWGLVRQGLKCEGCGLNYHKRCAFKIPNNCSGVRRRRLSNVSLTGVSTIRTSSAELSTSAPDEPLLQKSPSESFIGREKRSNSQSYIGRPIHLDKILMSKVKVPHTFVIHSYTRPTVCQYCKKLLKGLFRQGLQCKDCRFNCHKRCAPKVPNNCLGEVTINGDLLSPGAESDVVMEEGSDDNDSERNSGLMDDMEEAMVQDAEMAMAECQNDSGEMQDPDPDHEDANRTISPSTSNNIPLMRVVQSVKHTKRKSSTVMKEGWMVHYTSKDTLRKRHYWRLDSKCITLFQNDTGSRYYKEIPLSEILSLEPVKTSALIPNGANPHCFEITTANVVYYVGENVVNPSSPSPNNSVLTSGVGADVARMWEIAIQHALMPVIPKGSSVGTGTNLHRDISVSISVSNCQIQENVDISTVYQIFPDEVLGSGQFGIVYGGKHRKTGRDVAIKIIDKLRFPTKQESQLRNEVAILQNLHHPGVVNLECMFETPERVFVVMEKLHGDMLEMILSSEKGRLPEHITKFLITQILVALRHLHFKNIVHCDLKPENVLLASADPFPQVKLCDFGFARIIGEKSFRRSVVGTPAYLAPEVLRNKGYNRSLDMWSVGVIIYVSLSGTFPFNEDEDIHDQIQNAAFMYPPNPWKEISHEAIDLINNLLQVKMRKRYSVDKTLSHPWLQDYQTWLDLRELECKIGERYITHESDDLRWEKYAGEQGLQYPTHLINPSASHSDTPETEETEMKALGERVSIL

382 unique human kinases [12] = biological target: T12, 382 unique human kinases (Homo sapiens, UniProt P22607, K650E); settings: FGFR3 (K650E), 10 uM; for remaining activity at 10 µM: read-out: % Enzyme Activity (relative to DMSO controls)
T12 construct: purchased Reaction Biology (HotSpot contract assay)
T12 sequence (P22607 23-806 K650E): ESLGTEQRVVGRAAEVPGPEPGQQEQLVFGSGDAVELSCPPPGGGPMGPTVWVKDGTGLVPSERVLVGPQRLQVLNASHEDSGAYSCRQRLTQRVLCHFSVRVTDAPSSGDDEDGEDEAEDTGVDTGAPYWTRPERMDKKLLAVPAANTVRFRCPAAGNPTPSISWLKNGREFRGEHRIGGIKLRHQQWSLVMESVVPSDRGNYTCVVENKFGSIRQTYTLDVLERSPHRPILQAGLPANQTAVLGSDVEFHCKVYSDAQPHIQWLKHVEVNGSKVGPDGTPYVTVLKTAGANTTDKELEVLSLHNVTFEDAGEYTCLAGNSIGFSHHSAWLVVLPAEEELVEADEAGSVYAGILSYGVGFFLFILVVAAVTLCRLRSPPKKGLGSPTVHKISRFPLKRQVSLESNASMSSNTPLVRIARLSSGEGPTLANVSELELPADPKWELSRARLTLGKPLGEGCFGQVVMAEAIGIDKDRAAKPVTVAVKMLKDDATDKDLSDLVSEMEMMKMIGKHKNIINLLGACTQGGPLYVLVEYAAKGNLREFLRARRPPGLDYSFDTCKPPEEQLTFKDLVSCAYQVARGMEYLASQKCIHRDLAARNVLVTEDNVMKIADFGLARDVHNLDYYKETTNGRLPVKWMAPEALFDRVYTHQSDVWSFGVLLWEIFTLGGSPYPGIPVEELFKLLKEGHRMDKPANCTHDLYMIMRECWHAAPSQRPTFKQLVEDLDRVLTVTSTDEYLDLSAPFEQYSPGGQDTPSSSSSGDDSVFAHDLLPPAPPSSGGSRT

T4 sequence (Q9UK32 whole entry): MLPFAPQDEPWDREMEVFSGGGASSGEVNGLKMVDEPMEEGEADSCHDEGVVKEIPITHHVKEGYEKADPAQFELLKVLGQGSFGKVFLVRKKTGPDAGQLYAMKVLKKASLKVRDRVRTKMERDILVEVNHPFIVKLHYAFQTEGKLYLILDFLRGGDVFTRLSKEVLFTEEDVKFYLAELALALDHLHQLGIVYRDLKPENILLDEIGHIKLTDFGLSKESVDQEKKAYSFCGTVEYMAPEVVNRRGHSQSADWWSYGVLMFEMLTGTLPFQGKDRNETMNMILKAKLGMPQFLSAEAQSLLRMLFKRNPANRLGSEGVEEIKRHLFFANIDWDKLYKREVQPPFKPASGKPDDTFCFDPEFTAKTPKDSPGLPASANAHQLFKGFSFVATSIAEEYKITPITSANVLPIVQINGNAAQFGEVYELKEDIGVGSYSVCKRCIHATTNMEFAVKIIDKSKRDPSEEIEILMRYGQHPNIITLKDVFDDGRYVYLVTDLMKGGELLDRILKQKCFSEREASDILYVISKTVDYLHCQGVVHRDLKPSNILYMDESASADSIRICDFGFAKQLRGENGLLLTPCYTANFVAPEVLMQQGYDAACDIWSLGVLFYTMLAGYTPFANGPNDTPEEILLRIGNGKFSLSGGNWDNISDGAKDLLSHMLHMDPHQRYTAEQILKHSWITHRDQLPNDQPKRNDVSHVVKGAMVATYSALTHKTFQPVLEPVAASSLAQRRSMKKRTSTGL
T2 sequence (O75116 whole entry): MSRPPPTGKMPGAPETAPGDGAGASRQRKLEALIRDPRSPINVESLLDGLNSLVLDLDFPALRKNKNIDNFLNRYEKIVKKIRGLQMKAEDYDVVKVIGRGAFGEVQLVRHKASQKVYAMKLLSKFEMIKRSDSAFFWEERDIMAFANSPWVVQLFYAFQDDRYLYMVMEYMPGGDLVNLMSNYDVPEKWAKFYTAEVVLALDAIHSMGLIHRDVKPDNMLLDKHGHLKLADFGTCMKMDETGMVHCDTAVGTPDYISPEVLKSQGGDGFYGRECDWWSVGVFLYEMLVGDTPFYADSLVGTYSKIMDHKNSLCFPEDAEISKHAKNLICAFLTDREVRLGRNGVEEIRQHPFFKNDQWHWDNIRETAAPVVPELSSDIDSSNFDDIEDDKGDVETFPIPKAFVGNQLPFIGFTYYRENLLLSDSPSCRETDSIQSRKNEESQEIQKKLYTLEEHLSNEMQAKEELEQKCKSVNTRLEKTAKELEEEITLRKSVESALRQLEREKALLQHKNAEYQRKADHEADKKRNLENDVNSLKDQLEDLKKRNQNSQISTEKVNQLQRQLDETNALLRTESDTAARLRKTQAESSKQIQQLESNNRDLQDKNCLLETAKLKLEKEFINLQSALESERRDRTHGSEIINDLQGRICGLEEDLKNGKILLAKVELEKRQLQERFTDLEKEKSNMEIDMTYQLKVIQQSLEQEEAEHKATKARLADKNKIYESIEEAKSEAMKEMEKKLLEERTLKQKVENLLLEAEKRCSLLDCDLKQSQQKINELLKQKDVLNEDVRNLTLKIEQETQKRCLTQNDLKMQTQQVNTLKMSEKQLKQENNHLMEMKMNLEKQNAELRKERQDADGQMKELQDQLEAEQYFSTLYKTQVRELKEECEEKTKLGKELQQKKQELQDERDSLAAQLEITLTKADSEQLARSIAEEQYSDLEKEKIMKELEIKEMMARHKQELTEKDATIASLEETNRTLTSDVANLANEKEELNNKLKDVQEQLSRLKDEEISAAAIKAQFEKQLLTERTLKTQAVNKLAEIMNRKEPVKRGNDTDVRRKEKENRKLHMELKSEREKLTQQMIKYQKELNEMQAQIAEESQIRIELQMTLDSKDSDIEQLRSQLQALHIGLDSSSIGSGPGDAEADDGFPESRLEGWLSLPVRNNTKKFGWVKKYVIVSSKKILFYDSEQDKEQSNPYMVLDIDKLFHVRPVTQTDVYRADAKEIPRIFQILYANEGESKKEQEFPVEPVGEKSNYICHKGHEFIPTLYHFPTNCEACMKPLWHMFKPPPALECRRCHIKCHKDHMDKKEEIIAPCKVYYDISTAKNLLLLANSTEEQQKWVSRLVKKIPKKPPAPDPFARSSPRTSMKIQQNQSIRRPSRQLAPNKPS
T3 sequence (P29317 24-976): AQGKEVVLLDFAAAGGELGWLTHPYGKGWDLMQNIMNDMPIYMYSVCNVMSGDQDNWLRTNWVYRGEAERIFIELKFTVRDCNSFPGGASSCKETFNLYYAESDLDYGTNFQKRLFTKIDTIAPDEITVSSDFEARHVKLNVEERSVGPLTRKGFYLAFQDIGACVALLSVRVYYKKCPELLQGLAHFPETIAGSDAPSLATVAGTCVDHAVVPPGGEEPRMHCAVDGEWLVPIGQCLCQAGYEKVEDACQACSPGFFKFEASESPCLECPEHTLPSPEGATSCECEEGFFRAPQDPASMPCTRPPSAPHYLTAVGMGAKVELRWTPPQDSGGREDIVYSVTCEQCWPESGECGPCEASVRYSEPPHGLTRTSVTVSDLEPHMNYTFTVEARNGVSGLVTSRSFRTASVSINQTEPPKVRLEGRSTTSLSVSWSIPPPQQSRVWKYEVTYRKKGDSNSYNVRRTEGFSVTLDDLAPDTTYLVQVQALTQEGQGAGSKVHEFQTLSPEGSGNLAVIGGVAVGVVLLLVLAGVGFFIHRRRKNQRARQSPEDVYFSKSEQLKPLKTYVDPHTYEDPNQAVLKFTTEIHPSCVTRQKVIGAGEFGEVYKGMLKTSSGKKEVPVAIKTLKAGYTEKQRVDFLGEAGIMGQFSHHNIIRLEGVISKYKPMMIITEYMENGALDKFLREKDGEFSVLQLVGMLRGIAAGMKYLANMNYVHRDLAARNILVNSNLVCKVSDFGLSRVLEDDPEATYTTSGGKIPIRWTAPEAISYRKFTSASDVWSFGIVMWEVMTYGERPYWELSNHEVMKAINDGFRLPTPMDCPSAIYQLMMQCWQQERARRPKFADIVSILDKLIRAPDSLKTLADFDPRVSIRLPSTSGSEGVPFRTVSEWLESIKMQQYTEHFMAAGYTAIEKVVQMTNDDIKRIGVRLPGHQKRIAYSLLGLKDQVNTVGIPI
T6 sequence (P07949 29-1114 S891A): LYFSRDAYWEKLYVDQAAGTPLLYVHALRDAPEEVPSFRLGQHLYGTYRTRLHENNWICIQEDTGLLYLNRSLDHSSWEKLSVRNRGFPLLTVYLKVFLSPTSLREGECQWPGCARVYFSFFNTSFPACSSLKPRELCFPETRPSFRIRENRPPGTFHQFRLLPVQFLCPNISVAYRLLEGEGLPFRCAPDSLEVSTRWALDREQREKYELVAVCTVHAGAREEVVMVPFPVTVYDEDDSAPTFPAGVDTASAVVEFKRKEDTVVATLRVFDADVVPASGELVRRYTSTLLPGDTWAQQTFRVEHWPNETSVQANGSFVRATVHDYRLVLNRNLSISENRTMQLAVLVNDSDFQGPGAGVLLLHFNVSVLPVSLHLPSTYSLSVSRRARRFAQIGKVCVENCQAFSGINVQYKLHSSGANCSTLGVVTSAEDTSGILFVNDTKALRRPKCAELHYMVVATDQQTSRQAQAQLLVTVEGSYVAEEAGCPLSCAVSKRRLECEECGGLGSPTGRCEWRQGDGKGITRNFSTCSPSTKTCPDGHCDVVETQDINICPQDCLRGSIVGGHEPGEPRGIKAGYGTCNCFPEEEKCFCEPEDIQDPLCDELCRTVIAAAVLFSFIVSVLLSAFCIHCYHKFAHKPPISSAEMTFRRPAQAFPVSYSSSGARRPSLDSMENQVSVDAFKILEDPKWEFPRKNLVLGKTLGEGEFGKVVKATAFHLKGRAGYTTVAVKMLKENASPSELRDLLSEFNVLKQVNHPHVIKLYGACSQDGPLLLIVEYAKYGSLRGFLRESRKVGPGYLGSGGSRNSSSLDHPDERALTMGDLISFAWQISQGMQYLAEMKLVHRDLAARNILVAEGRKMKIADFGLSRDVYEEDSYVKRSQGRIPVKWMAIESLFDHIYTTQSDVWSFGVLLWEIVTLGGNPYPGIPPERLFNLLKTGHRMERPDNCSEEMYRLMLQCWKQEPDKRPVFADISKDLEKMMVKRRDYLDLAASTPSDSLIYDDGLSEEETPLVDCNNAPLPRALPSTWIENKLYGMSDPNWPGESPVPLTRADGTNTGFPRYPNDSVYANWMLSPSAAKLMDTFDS

Row | SMILES | remaining activity at 10 µM (382 unique human kinases [1]) | remaining activity at 10 µM (382 unique human kinases [2]) | remaining activity at 10 µM (382 unique human kinases [3]) | remaining activity at 10 µM (382 unique human kinases [4]) | remaining activity at 10 µM (382 unique human kinases [5]) | remaining activity at 10 µM (382 unique human kinases [6]) | remaining activity at 10 µM (382 unique human kinases [7]) | remaining activity at 10 µM (382 unique human kinases [8]) | remaining activity at 10 µM (382 unique human kinases [9]) | remaining activity at 10 µM (382 unique human kinases [10]) | remaining activity at 10 µM (382 unique human kinases [11]) | remaining activity at 10 µM (382 unique human kinases [12]) | also measured
1 | CCNC(=O)c1noc(-c2cc(C(C)C)c(O)cc2O)c1-c1ccc(CN2CCOCC2)cc1 [Luminespib] | 94.8% | 99.3% | 92.4% | 96% | 103% | 89.3% | 5.39% | – | – | – | – | – | % Enzyme Activity (relative to DMSO controls) (382 unique human kinases [1]): 91.59%; % Enzyme Activity (relative to DMSO controls) (382 unique human kinases [2]): 98.18%; % Enzyme Activity (relative to DMSO controls) (382 unique human kinases [3]): 92.01%; % Enzyme Activity (relative to DMSO controls) (382 unique human kinases [4]): 94.35%; % Enzyme Activity (relative to DMSO controls) (382 unique human kinases [5]): 102.31%; % Enzyme Activity (relative to DMSO controls) (382 unique human kinases [6]): 88.26%; % Enzyme Activity (relative to DMSO controls) (382 unique human kinases [7]): 5.25%
2 | CC(C)c1cc(-c2n[nH]c(=O)n2-c2ccc3c(ccn3C)c2)c(O)cc1O [Ganetespib (STA9090)] | – | – | – | – | – | – | – | 88% | 101% | 142% | 84% | 66.5% | –
3 | CCNC(=O)c1noc(-c2cc(C(C)C)c(O)cc2O)c1-c1ccc(CN2CCOCC2)cc1 [Luminespib (AUY-922)] | – | – | – | – | – | – | – | 100% | 104% | 114% | 86.5% | 101% | % Enzyme Activity (relative to DMSO controls) (382 unique human kinases [8]): 99.30%; % Enzyme Activity (relative to DMSO controls) (382 unique human kinases [9]): 104.01%; % Enzyme Activity (relative to DMSO controls) (382 unique human kinases [10]): 113.96%; % Enzyme Activity (relative to DMSO controls) (382 unique human kinases [11]): 86.44%; % Enzyme Activity (relative to DMSO controls) (382 unique human kinases [12]): 98.78%
4 | CC(C)c1cc(-c2n[nH]c(=O)n2-c2ccc3c(ccn3C)c2)c(O)cc1O [Ganetespib] | 100% | 105% | 43.5% | 27.5% | 97% | 20.2% | 3.59% | – | – | – | – | – | –
